From patent publication US10918687B2, “Kava derived therapeutic compounds and methods of use thereof” (KUALITY HERBCEUTICS LLC, priority 2013, dated 2021)

Legend:
[1] = test system: NNK-induced DNA damage in liver tissues; experiment: NNK-induced DNA damage in A/J mouse liver tissues; format: in vivo, A/J mice; conditions: diet Day 1-Day 7, 24 h after NNK; data not shown
Experimental: DNA was isolated and purified from ˜100 mg lung and liver tissues of each mouse, following Genomic-tip 100/G protocol from Qiagen Corp (Valencia, Calif.).
After one-week acclimation, A/J mice were weighed and randomized into ten groups (3 mice per group except for Group 1 that had one mouse as the negative control) and switched to the AIN-93 G diet on a date defined as Day 1. Mice in Groups 1 and 2 were given the AIN-93 G diet during Day 1-Day 7. Mice in Groups 3-10 were given the AIN-93 G diets supplemented with kava, (+)-DHK, (+)-DHM, and synthetic (±)-DHM respectively at the specified dose during Day 1-Day 7. Mice in Groups 2-10 were given a single dose of NNK at 100 mg/kg bodyweight in saline (0.1 ml) via i.p. injection at the beginning of Day 7 while the mouse in Group 1 was given saline (0.1 ml). Mice were euthanized by CO2 overdosing 24 h after NNK treatment, and lung and liver tissues were collected and stored at −80° C. until DNA isolation. A set of NNK-induced DNA adducts (O^6-mG, 7-mG, 7-pobG, O^6-pobdG, O^2-pobdT, 7-phbG, O^6-phbdG and O^2-phbdT) were quantified by following reported procedures (Leitzman, P et al. (2014) Cancer. Prev. Res., 7: 86-96; Peterson, L A et al. (2013) Chem. Res. Toxicol. 26: 1464-1473; Upadhyaya, P et al. (2008) Chem. Res. Toxicol. 21: 1468-1476). For 7-mG isolation, DNA (30 μg) was dissolved in 10 mM sodium phosphate buffer, pH 7 (500 μL) and spiked with [^13C1^2H3]7-mG (10 pmol). Samples were heated to 80° C. for 30 minutes. An aliquot (100 μL) was removed for 7-mG analysis.

[2] = A/J mouse safety upon 17-week continuous exposure of (+)-DHM; format: in vivo, A/J mice; conditions: for adverse effects: 0.5 mg/g of diet (at least 10x minimum effective dose)
Experimental: After one-week acclimation, A/J mice were weighed and randomized into two groups (five mice in the control group and ten mice in (+)-DHM treatment group). Mice in the control group were maintained on the AIN-93 G diet for three weeks and then switched to the AIN-93 M diet until the end of Week 17. Mice in (+)-DHM treatment group were maintained on the same diet as the control group with supplementation of (+)-DHM at a dose of 0.5 mg/g of diet. Food was replenished twice weekly. Food intake was monitored twice a week and mouse bodyweight was monitored once a week. At the end of Week 8, serum samples from each mouse were prepared from blood collected via a facial vein and analyzed for a panel of clinical chemistry analytes. At the end of Week 17, mice were euthanized by CO2 overdosing. Blood was collected with one portion analyzed for hematology and the other portion processed for serum and analyzed for a full panel of clinical chemistry analytes. Individual animal body weights and major organ weights (lung, liver, heart, spleen and kidney) were recorded. Lung, liver, heart, spleen, kidney and pancreas were fixed in 10% neutral-buffered formalin solution.

[3] = test system: PhIP-induced DNA damage in hepe1c1c7 cells; experiment: PhIP-induced DNA damage in hepe1c1c7 cells; format: cell-based, rodent; conditions: 1, 5 and 25 μM co-treated with PhIP (10 μM) for 24 hours
From the text: (§1) The goal of this study was to explore the potential scope of dihydromethysticin in blocking/reducing different carcinogen-induced DNA damage and detoxifying such carcinogens. […] Benzo(a)pyrene (BaP) is a representative polyaromatic hydrocarbon-based carcinogen in cigarette smoke and is present in various industrial/motor exhaust/waste. BaP is a human carcinogen to lung, stomach and other tissues. A rodent liver cancer cell line was used in these studies. Briefly, the hepe1c1c7 cells were co-treated with dihydromethysticin (1, 5, and 25 μM) and PhIP (10 μM) for 24 hours with DNA isolated and PhIP-based DNA damage quantified (FIG. 28A). […] Similarly the cells were co-treated with dihydromethysticin (1, 5, and 25 μM) and BaP (0.3 μM) for 3 hours with DNA isolated and BaP-based DNA damage quantified (FIG. 28B).

[4] = test system: BaP-induced DNA damage in hepe1c1c7 cells; experiment: BaP-induced DNA damage in hepe1c1c7 cells; format: cell-based, rodent; conditions: 1, 5 and 25 μM co-treated with BaP (0.3 μM) for 3 hours
From the text: as §1

[5] = test system: APAP-induced hepatotoxicity; experiment: Short-term combination study: potentiation of APAP-induced hepatotoxicity in C57BL/6 mice; conditions: 3-day daily gavage, DHM 37.5 mg/kg, FKB 11.5 mg/kg
From the text: Six week-old female C57BL/6J mice (Jackson Laboratories, ME) were housed at specific pathogen-free animal facilities of Research Animal Resources, University of Minnesota with free access to standard rodent food and water. All mice were acclimatized for one week before being used for experiments. Mice were gavaged with dose formulations at the indicated doses and times, euthanized by CO2 overdosing with necropsy performed by experienced researchers.
The short-term combination studies were designed to evaluate the potential synergism of kava and its chemicals to APAP induced hepatotoxicity. C57BL/6 mice were randomized (8-15 mice per group) and were administered with PEG-400 (200 μL), kava (500 mg/kg bodyweight), DHM or FKA and FKB in PEG-400 (200 μL) at the indicated doses daily via oral gavage for two days. On the third day, mice in the respective groups were co-administered with APAP (800 mg/kg bodyweight) in PEG-400 (200 μL). Bodyweight was recorded daily. Necropsies were performed 24 hours after the last gavage by experienced researchers. Serum from each mouse was analyzed for ALT and AST. Livers were collected and preserved in 10% neutral buffered formalin. Appropriately fixed tissues were processed into paraffin blocks using standard histological techniques, and 5 μm sections were cut and stained with hematoxylin and eosin (H&E).
The clinical chemistry data were reported as mean±SD (n=4-15). […] One-way analysis of variance (ANOVA) was used to compare the means among different groups in the short-term combination studies. Dunnett's test was used for comparisons of APAP and other treatment groups when the one-way ANOVA analysis was statistically significant. p-value≤0.05 was considered statistically significant. All analyses were conducted in GraphPad Prism 4 (GraphPad Software, Inc. La Jolla, Calif.).

[6] = test system: human lung H2009 cancer cell line tumors; experiment: H2009 human lung cancer xenograft in nude mice; format: in vivo; conditions: 40 mg/kg bodyweight via i.p. injection or oral gavage
Experimental: Typically human origin lung cancer cells were cultured and mixed with Metrigel. 2-5×10^6 cells were inoculated in the nude mice. Mice were randomized into different groups when the tumor size reached ˜50 mm^3. Treated mice received drug candidate at a dose of 40 mg/kg bodyweight via i.p. injection or oral gavage. The tumor size was monitored once or twice a week until 5 weeks since the treatment or when the size of the tumors >1000 mm^3. Mouse bodyweight was monitored once a week. Mice were CO^2 euthanized and the tumors were collected and weighed. Major organs were grossly examined and weighed as well.

[7] = 0.5 mg/g of diet, Week 17, data not shown

| Compound | effect on NNK-induced DNA damage in the liver tissues [1] | adverse effects ([2]; 17 weeks) | food intake vs control ([2]; 0.5 mg/g of diet, 17 weeks) | weekly bodyweight vs control ([2]; 0.5 mg/g of diet, 17 weeks) | full-panel hematology vs control ([2]; 0.5 mg/g of diet, Week 17) | histopathological examination of liver, lung, heart, kidney, spleen and pancreas vs control [2, 7] | serum osmolality and anion gap vs control [2, 7] | final bodyweight and relative weights of five organs vs control ([2]; 0.5 mg/g of diet, Week 17, except for the lung tissues) | relative lung weight vs control ([2]; 0.5 mg/g of diet, Week 17, excluding one control mouse with lung hemorrhage (p=0.10)) | serum clinical chemistry (ALP, ALT, AST, BUN, albumin, total bilirubin, CK, glucose, cholesterol, amylase) vs control ([2]; 0.5 mg/g of diet, end of Week 8) | serum clinical chemistry vs control ([2]; 0.5 mg/g of diet, end of Week 17) | PhIP-induced DNA damage [3] | BaP-induced DNA damage [4] | serum ALT and AST when combined with APAP, vs APAP alone ([5]; APAP 800 mg/kg on third day, FKA and FKB 1, 2, 4 times abundance) | serum ALT and AST, treatment alone (without APAP) ([5]; kava 500 mg/kg, FKA and FKB at 1, 2 and 4 times their abundance in kava 500 mg/kg) | tumor volume relative to control group [6] |
| --- | --- | --- | --- | --- | --- | --- | --- | --- | --- | --- | --- | --- | --- | --- | --- | --- |
| COC1=CC(=O)O[C@@H](CCc2ccc3c(c2)OCO3)C1 [(+)-DHM, (+)-dihydromethysticin] | none of the treatments had significant effects | did not present with any adverse effects | similar | none of the differences were statistically significant | None of these parameters were significantly different | no significant differences | no differences | not significantly different | no significant differences | No significant differences | no significant differences | – | – | – | – | – |
| COC1=CC(=O)O[C@@H](CCc2ccc3c(c2)OCO3)C1 [DHM, dihydromethysticin] | – | no adverse effects | – | – | – | – | – | – | – | – | – | effectively and dose-dependently reduced | effectively and dose-dependently reduced | no effect | no effect | significantly reduced |
